Measured values published in ChEMBL document CHEMBL4706760, “Novel Heteroaryl Compounds as Splicing Modulators for Modulating Splicing of mRNA and Uses Thereof for Treating Diseases” (ACS Med Chem Lett, 2021).

Legend:
Assay type in all cases: subcellular
[1] = Splicing modulation activity at Exon E7b mRNA in human cell lysates assessed as induction of poison exon inclusion in RNA measured cells pretreated for 24 hrs followed by first 16 hrs of incubation treated with cycloheximide for 8 hrs by qPCR
[2] = Splicing modulation activity at wild type Exon 12/12b/12c/13 mRNA in human cell lysates assessed as induction of poison exon inclusion in RNA measured cells pretreated for 24 hrs followed by first 16 hrs of incubation treated with cycloheximide for 8 hrs by qPCR
[3] = Splicing modulation activity at wild type Exon 7/7b/7c/8 mRNA in human cell lysates assessed as induction of poison exon inclusion in RNA measured cells pretreated for 24 hrs followed by first 16 hrs of incubation treated with cycloheximide for 8 hrs by qPCR
[4] = Splicing modulation activity at Exon 12c mRNA in human cell lysates assessed as induction of poison exon inclusion in RNA measured cells pretreated for 24 hrs followed by first 16 hrs of incubation treated with cycloheximide for 8 hrs by qPCR
[5] = Splicing modulation activity at Exon E7c mRNA in human cell lysates assessed as induction of poison exon inclusion in RNA measured cells pretreated for 24 hrs followed by first 16 hrs of incubation treated with cycloheximide for 8 hrs by qPCR

Which results are given for CN(c1ccc(-c2cc(F)c(-c3ccn(CF)c(=O)c3)cc2O)nn1)[C@H]1C[C@]2(C)CCC[C@](C)(C1)N2?
EC50 [1]: 88 nM; IC50 [2]: 94.7 nM; IC50 [3]: 93.9 nM; EC50 [4]: 92.9 nM; EC50 [5]: 293 nM

What does the source list for CNC(=O)c1ccc2cc(-c3ccc(N(C)[C@H]4C[C@]5(C)CCC[C@](C)(C4)N5)nn3)c(O)cc2n1?
EC50 [1]: 9.3 nM; IC50 [2]: 54 nM; IC50 [3]: 27.6 nM; EC50 [4]: 46.1 nM; EC50 [5]: 60.2 nM

For CN(c1ccc(-c2cc(F)c(-c3ccn(C)c(=O)c3)cc2O)nn1)[C@H]1C[C@]2(C)CCC[C@](C)(C1)N2, which IC50 [2] is on record?
Its IC50 is 116 nM.

What about the EC50 [4] of the same molecule?
The EC50 was 238 nM.

For CN(c1ccc(-c2cc(F)c(-c3cn[nH]c3)cc2O)nn1)[C@@H]1C[C@H]2CCC[C@@H](C1)N2, which EC50 [1] is on record?
Its EC50 is 168 nM.

And the IC50 [3]?
The IC50 was 46 nM.

What about the EC50 [5] of the same molecule?
The EC50 was 162 nM.

Which EC50 [1] does the source give for CN(c1ncc(-c2ccc(-c3cn[nH]c3)cc2O)nn1)[C@@H]1C[C@H]2CC[C@@H](C1)N2 here?
The EC50 was 39.6 nM.

What about the IC50 [3] of the same molecule?
The IC50 was 150 nM.

What about the EC50 [5] of the same molecule?
The EC50 was 294 nM.

For CNC(=O)/C=C/c1cc(O)c(-c2ccc(N(C)[C@H]3C[C@]4(C)CCC[C@](C)(C3)N4)nn2)cc1F, which EC50 [1] is on record?
Its EC50 is 41 nM.

And the IC50 [2]?
The IC50 was 162 nM.

And the IC50 [3]?
The IC50 was 99.1 nM.

What about the EC50 [4] of the same molecule?
The EC50 was 126 nM.

And the EC50 [5]?
Its EC50 is 310 nM.
